Test results: US11680885B2, “Method, process, composition and kit for measuring concentration of molecules dissolved in the continuous phase of a colloid” (UNIVERSIDAD TÉCNICA FEDERICO SANTA MARÍA, priority 2017, dated 2023)

Experiment: Measurement of concentration of molecules dissolved in the continuous phase of the standard AuNP@MUA colloid (centrifugation, RP-HPLC with UV-visible detection)
Assay type: physicochemical
Conditions: n=3; for concentration in the control samples, equivalent to the continuous phase of the colloid: control samples: particle-free solution extracted from the colloid, 2.00 μM molecule added; for concentration of molecules dissolved in the continuous phase of the standard AuNP@MUA colloid: test samples, after incorporating 2.00 μM of the molecule into the colloid, centrifuged 24,000×g 15 min, average
Method: In general terms, the concentration of molecules dissolved in a fraction of the particle free colloid is measured. To evaluate this, in a first part the method obtains a test sample and a control sample. The test sample contains molecules dissolved in a colloid, and the control sample contains the same concentration of molecules dissolved in a particle-free solution extracted from the same colloid used to obtain the test sample. […] Subsequently, the samples are exposed to a condition that allows the particles of the test sample to be concentrated. […] Then, a particle-free volume is recovered from the test sample. The fraction recovered is equivalent to the continuous phase of the colloid and includes the effect of the interaction between molecules and particles. Finally, the concentration of molecules dissolved in the continuous phase of the colloid is measured using equation 1:
[formula] where [FC] corresponds to the concentration of molecules dissolved in the continuous phase of a colloid, [ ]0 corresponds to the value of the concentration of molecules used during the sampling steps, @mp corresponds to the empirical value of a parameter proportional to the number of molecules contained in a volume of particle-free test sample, and @mc corresponds to the empirical value of the same parameter proportional to the number of molecules contained in a volume of control sample. The concentration value obtained from this equation is equivalent to the concentration of molecules dissolved in the continuous phase of the colloid. […]
[formula] • where [FC] corresponds to the concentration of molecules dissolved in the continuous phase of a colloid, [ ]0 corresponds to the value of the concentration of molecules used during the sampling steps, @mp corresponds to the empirical value of a parameter proportional to the number of molecules contained in a volume of particle-free test sample obtained in step f), and @mc corresponds to the empirical value of the same parameter, but measured in the control sample obtained in step g).

concentration in the control samples, equivalent to the continuous phase of the colloid [µM] | concentration of molecules dissolved in the continuous phase of the standard AuNP@MUA colloid [µM] | Structure (SMILES)
2.00 | 2.00 | CN(C)c1ccc(N=Nc2ccc(S(=O)(=O)[O-])cc2)cc1.[Na+] [methyl orange]
2.00 | 1.17 | CN(C)c1ccc2nc3ccc(=[N+](C)C)cc-3sc2c1 [methylene blue]
